Reference: the Kinase Knowledgebase extract (Sharma et al. 2016)
In brackets after ≈: the same amount, converted by molar mass. Several values for one entry are separate records, joined by “and”; a condition that tells them apart may be missing. Equal values may be shown once. Values belong to the compound of their own block, whether it stands above or below them.

What was measured:
EGFR (human) [1] = molecular target: EGFR (human) (UniProt P00533); conditions: ls174t
EGFR (human) [2] = molecular target: EGFR (human) (UniProt P00533); conditions: ccrf-cem leukemia cell
EGFR (human) [3] = molecular target: EGFR (human) (UniProt P00533); conditions: sw948
EGFR (human) [4] = molecular target: EGFR (human) (UniProt P00533); conditions: pc-3
EGFR (human) [5] = molecular target: EGFR (human) (UniProt P00533); conditions: a549
EGFR (human) [6] = molecular target: EGFR (human) (UniProt P00533); conditions: mip
EGFR (human) [7] = molecular target: EGFR (human) (UniProt P00533); conditions: lx1
EGFR (human) [8] = molecular target: EGFR (human) (UniProt P00533); conditions: a431
EGFR (human) [9] = molecular target: EGFR (human) (UniProt P00533); conditions: t-47d
EGFR (human) [10] = molecular target: EGFR (human) (UniProt P00533); conditions: nfc
EGFR (human) [11] = molecular target: EGFR (human) (UniProt P00533); conditions: cx-1 colon
EGFR (human) [12] = molecular target: EGFR (human) (UniProt P00533); conditions: ccl228
EGFR (human) [13] = molecular target: EGFR (human) (UniProt P00533); conditions: lncap
EGFR (human) [14] = molecular target: EGFR (human) (UniProt P00533); conditions: hct-15
EGFR [15] = molecular target: EGFR (UniProt P00533)
EGFR (human) [16] = molecular target: EGFR (human) (UniProt P00533); conditions: hl-60
EGFR (human) [17] = molecular target: EGFR (human) (UniProt P00533); conditions: colo-205
EGFR (human) [18] = molecular target: EGFR (human) (UniProt P00533); conditions: du145
EGFR (human) [19] = molecular target: EGFR (human) (UniProt P00533); conditions: caco2
EGFR [20] = molecular target: EGFR (UniProt P00533); remark: listed apart in the source
EGFR (human) [21] = molecular target: EGFR (human) (UniProt P00533); conditions: a2780ddp
EGFR (human) [22] = molecular target: EGFR (human) (UniProt P00533); conditions: b7474
EGFR (human) [23] = molecular target: EGFR (human) (UniProt P00533); conditions: a2780s
EGFR (human) [24] = molecular target: EGFR (human) (UniProt P00533); conditions: htb161
EGFR (human) [25] = molecular target: EGFR (human) (UniProt P00533); conditions: nhek

Chain of EGFR (P00533 whole entry, looked up): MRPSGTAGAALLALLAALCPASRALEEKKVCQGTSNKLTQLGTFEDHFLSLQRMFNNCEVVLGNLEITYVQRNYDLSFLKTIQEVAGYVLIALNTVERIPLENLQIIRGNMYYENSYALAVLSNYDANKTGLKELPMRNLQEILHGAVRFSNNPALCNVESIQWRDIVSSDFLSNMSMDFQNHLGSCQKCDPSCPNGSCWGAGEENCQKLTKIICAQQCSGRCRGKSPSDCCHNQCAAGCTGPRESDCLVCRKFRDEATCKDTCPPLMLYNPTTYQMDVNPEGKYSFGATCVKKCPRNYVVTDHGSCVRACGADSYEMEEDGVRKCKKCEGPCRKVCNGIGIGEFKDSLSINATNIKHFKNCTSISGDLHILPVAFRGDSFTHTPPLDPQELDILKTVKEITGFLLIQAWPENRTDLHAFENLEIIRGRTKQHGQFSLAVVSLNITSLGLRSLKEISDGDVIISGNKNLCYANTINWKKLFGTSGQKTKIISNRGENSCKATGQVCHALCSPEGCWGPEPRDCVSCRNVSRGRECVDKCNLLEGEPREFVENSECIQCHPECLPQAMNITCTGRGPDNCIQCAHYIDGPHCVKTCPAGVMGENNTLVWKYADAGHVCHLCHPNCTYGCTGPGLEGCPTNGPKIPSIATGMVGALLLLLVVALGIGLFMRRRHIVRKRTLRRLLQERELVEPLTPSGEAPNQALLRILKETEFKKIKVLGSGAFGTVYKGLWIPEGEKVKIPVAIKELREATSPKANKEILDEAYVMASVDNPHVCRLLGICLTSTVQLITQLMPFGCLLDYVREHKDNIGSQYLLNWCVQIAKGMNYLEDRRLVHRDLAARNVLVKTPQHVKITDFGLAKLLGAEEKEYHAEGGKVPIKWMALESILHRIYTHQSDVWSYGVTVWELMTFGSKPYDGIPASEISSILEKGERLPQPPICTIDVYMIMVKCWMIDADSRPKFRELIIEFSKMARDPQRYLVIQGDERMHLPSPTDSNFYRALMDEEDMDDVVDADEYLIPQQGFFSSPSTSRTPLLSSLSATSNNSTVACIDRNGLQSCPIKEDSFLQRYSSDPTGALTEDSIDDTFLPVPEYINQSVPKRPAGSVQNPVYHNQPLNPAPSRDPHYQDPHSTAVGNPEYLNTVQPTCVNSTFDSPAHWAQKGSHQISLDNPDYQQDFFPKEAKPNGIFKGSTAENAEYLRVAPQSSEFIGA
Chain of EGFR (human) (P00533 whole entry, looked up): as above

SMILES: COc1cc2ncc(C#N)c(Oc3cccc(Br)c3)c2cc1OC
IC50 (EGFR (human) [1]): > 100 µg/mL
IC50 (EGFR (human) [2]): > 100 µg/mL
IC50 (EGFR (human) [3]): > 100 µg/mL
IC50 (EGFR (human) [4]): > 100 µg/mL
IC50 (EGFR (human) [5]): > 100 µg/mL
IC50 (EGFR (human) [6]): > 100 µg/mL
IC50 (EGFR (human) [7]): > 100 µg/mL
IC50 (EGFR (human) [8]): 100 µg/mL

SMILES: COc1cc2ncc(C#N)c(Nc3ccc(F)cc3)c2cc1OC
IC50 (EGFR (human) [3]): > 100 µg/mL
IC50 (EGFR (human) [4]): > 100 µg/mL
IC50 (EGFR (human) [9]): > 100 µg/mL

SMILES: COc1cc2ncc(C#N)c(Nc3cccc(C#N)c3)c2cc1OC
IC50 (EGFR (human) [2]): > 100 µg/mL
IC50 (EGFR (human) [3]): > 100 µg/mL
IC50 (EGFR (human) [5]): 100 µg/mL (≈ 303 µM)
IC50 (EGFR (human) [16]): > 1 µg/mL
IC50 (EGFR (human) [6]): > 100 µg/mL
IC50 (EGFR (human) [7]): 100 µg/mL (≈ 303 µM)
IC50 (EGFR (human) [12]): > 100 µg/mL
IC50 (EGFR (human) [17]): > 100 µg/mL

SMILES: COc1cc2ncc(C#N)c(Nc3cccc(SC)c3)c2cc1OC
IC50 (EGFR [15]): 10 nM
IC50 (EGFR (human) [8]): 14.3 µg/mL and 6.95 µg/mL

SMILES: COc1cc2ncc(C#N)c(Nc3cccc(Br)c3)c2cc1NC(=O)C#CCN(C)C
IC50 (EGFR [15]): 0.008 nM

SMILES: COc1cc2ncc(C#N)c(Nc3cccc(Cl)c3)c2cc1OC
IC50 (EGFR (human) [8]): 240 nM and 0.71 µg/mL

SMILES: COc1cc2ncc(C#N)c(Nc3cccc(Br)c3)c2cc1OC
IC50 (EGFR (human) [8]): 300 nM

Now from value to compound:

IC50 (EGFR (human) [8]): > 10 µg/mL
SMILES: CNC/C=C/C(=O)Nc1ccc2ncc(C#N)c(Nc3cccc(Br)c3)c2c1

IC50 (EGFR (human) [10]): > 100 µg/mL
IC50 (EGFR (human) [2]): > 100 µg/mL
IC50 (EGFR (human) [3]): > 100 µg/mL
IC50 (EGFR (human) [4]): > 100 µg/mL
IC50 (EGFR (human) [5]): > 100 µg/mL
IC50 (EGFR (human) [11]): > 100 µg/mL
IC50 (EGFR (human) [7]): > 100 µg/mL
IC50 (EGFR (human) [12]): > 100 µg/mL
IC50 (EGFR (human) [13]): > 100 µg/mL
IC50 (EGFR (human) [14]): 100 µg/mL (≈ 271 µM)
SMILES: N#Cc1cnc2ccc([N+](=O)[O-])cc2c1Nc1cccc(Br)c1

IC50 (EGFR (human) [8]): > 5 µg/mL
SMILES: CC(=O)Nc1cc(CN(C)C)c2ncc(C#N)c(Nc3cccc(Br)c3)c2c1

IC50 (EGFR [15]): 80 nM
IC50 (EGFR (human) [8]): 0.8 µg/mL
SMILES: COC/C=C/C(=O)Nc1ccc2ncc(C#N)c(Nc3cccc(Br)c3)c2c1

IC50 (EGFR (human) [3]): > 100 µg/mL
IC50 (EGFR (human) [17]): > 100 µg/mL
SMILES: N#Cc1cnc2ccc(N)cc2c1Nc1cccc(Br)c1

IC50 (EGFR (human) [8]): 800 nM
SMILES: CCN1CCN(CC#CC(=O)Nc2ccc3ncc(C#N)c(Nc4cccc(Br)c4)c3c2)CC1

IC50 (EGFR (human) [10]): > 100 µg/mL
IC50 (EGFR (human) [18]): 7.81 µg/mL (≈ 19.3 µM)
IC50 (EGFR (human) [1]): > 33 µg/mL and 87 µg/mL
IC50 (EGFR (human) [2]): > 100 µg/mL
IC50 (EGFR (human) [3]): > 100 µg/mL
IC50 (EGFR (human) [19]): 5.63 µg/mL (≈ 13.9 µM)
IC50 (EGFR [20]): 9000 nM
IC50 (EGFR (human) [4]): > 100 µg/mL
IC50 (EGFR (human) [21]): 60.4 µg/mL (≈ 149 µM)
IC50 (EGFR (human) [5]): > 100 µg/mL
IC50 (EGFR (human) [22]): > 33 µg/mL and 95.7 µg/mL
IC50 (EGFR (human) [11]): 81.9 µg/mL (≈ 202 µM)
IC50 (EGFR (human) [16]): > 100 µg/mL
IC50 (EGFR (human) [6]): 100 µg/mL (≈ 247 µM)
IC50 (EGFR (human) [9]): > 100 µg/mL
IC50 (EGFR (human) [7]): > 100 µg/mL
IC50 (EGFR (human) [12]): > 100 µg/mL
IC50 (EGFR (human) [23]): 9.8 µg/mL (≈ 24.2 µM)
IC50 (EGFR (human) [17]): > 100 µg/mL
IC50 (EGFR (human) [24]): 7.89 µg/mL (≈ 19.5 µM)
IC50 (EGFR (human) [8]): 38.1 µg/mL
IC50 (EGFR (human) [13]): > 33 µg/mL and 90 µg/mL
IC50 (EGFR (human) [25]): 9000 nM
IC50 (EGFR (human) [14]): > 33 µg/mL and 98.9 µg/mL
SMILES: CC#CC(=O)Nc1ccc2ncc(C#N)c(Nc3cccc(Br)c3)c2c1
